From patent US7932289B2, “Remedy for diabetes” (Takeda Pharmaceutical Company Limited, priority 2004, dated 2011) come the findings set out here.

This assay deals with type 2 diabetic rats with sulfonylurea secondary failure (N-STZ-1.5 rat). Particulars: for Increment of plasma insulin level: 0 to 10 minutes after oral glucose loading (1 g/kg); for Increment of plasma insulin level / Increment of plasma glucose level: drug 10 mg/kg orally 30 min before glucose, male N-STZ-1.5 rats made glibenclamide-refractory, mean, n=6; for Increment of plasma glucose level: 0 to 60 minutes after oral glucose loading (1 g/kg); for plasma glucose level lowering effect / plasma insulin level increasing effect: in words, type 2 diabetic rats with sulfonylurea secondary failure, 10 mg/kg orally; for plasma glucose level lowering effect: summary of Table 1; for plasma insulin level increasing effect: summary of Table 2.

Experimental: Streptozocin (STZ) (120 mg/kg body weight) was administered to a 1.5-day-old male WKY rat to prepare a type 2 diabetes model N-STZ-1.5 rat.
Glibenclamide (10 mg/kg body weight/day) was orally administered to the N-STZ-1.5 rats (male, 18 rats) every day for 4 consecutive weeks.
At 30 min after the administration, 1 g/kg body weight of a glucose solution was orally administered to each rat, and blood samples were collected from the rat tail vein before administration of the glucose solution and at 10, 30, 60 and 120 minutes after administration of the glucose solution, and the plasma glucose level and plasma insulin level were measured.
The plasma glucose level was measured using an L type Wako Glu2 (trade name, Wako Pure Chemical Industries, Ltd.) according to an enzyme method, and the plasma insulin level was measured using a SHIONORIA insulin kit (trade name, Shionogi & Co., Ltd.) by a radioimmunoassay.
In the Tables, the values show mean values (n=6).

`Cc1cccc(C)c1-c1cccc(COc2ccc(CCC(=O)O)cc2)c1` [Compound A, 4-([2′,6′-dimethyl-1,1′-biphenyl]-3-ylmethoxy)benzenepropanoic acid]: the “Increment of plasma insulin level” value amounted to 42.76 μU/ml, the “Increment of plasma glucose level” value worked out at 107.12 mg/dL, the “plasma glucose level lowering effect” value is “superior plasma glucose level lowering effect” and the “plasma insulin level increasing effect” value is reported as “superior plasma insulin level increasing effect”.

With `COc1ccc(Cl)cc1C(=O)NCCc1ccc(S(=O)(=O)NC(=O)NC2CCCCC2)cc1` [glibenclamide], the “Increment of plasma insulin level” value is given as 29.37 μU/ml, the “Increment of plasma glucose level” value was 178.40 mg/dL, the “plasma glucose level lowering effect” value is recorded as “failed to show a plasma glucose level lowering effect” and the “plasma insulin level increasing effect” value is given as “hardly showed a plasma insulin level increasing effect”.
